Results published in article PMC10379331, “Identification of a Putative SARS-CoV-2 Main Protease Inhibitor through In Silico Screening of Self-Designed Molecular Library” (International Journal of Molecular Sciences, 2023).

What follows are compounds tested against M^pro protein (SARS-CoV-2 main protease) (Severe acute respiratory syndrome coronavirus 2, UniProt P0DTD1) (assay: FRET-based in vitro enzymatic inhibition assay). Conditions: not given.
Type: biochemical

How did the IC50 turn out when `Cc1cn(-c2cc(NC(=O)c3ccc(C)c(Nc4nccc(-c5cccnc5)n4)c3)cc(C(F)(F)F)c2)cn1` [Nilotinib, reference compound] was run?
Its IC50 is 19.9 ± 1.27 µM.

Same assay, conditions: 0.2 μM M^pro, 20 μM substrate MCA-[…]-Lys(Dnp)-Lys-NH2, 30 min preincubation at 37 °C; read-out: IC50 Value

With `Nc1n[nH]c2cccc(-c3ccc(C(=O)NCCNC(=O)c4ccc(Br)cc4)cc3)c12` [Compound V111] as the compound, how does the IC50 read?
Its IC50 is over 20 µM.

`CCC(=O)Nc1ccc(-c2cccc(C(=O)N[C@@H]3CN[C@H](C(=O)Nc4ccc(Cl)c(C(F)(F)F)c4)C3)c2)cn1` [Compound V139] was tested. Which IC50 did it give?
Its IC50 is over 20 µM.

Which IC50 does the source give for `O=C(c1ccc(-c2cc(Nc3ccc(Cl)cc3Cl)ncn2)cc1)N1CCN(C(=O)c2ccccc2F)CC1` [Compound V159] here?
The IC50 was over 20 µM.

How did the IC50 turn out when `Nc1n[nH]c2cccc(-c3ccc(C(=O)N4CCN(C(=O)c5cccc(F)c5)CC4)cc3)c12` [Compound V205] was run?
The IC50 was over 20 µM.

For `CCN(CC)C(=O)c1cncc(-c2cccc(C(=O)N[C@@H](C(=O)Nc3ccc(Cl)c(C(F)(F)F)c3)C(C)(C)C)c2)c1` [Compound V226], which IC50 is on record?
The IC50 was over 20 µM.

With `CC(=O)Nc1ccc(-c2ccc(C(=O)N[C@H](C(=O)Nc3ccc(Cl)c(C(F)(F)F)c3)C(C)(C)C)cc2)cn1` [Compound V231] as the compound, how does the IC50 read?
The IC50 was over 20 µM.

With `CC(C)(C)OCC(NC(=O)c1ccc(-c2cncc(C(=O)NC3CC3)c2)cc1)C(=O)Nc1ccc(Cl)c(C(F)(F)F)c1` (stereo not shown) [Compound V243] as the compound, how does the IC50 read?
Its IC50 is over 20 µM.

Which IC50 does the source give for `Nc1n[nH]c2cc(-c3cn([C@@H]4CN[C@H](C(=O)Nc5ccc(Cl)c(C(F)(F)F)c5)C4)nn3)ccc12` [Compound V291] here?
The IC50 was 2.77 ± 0.56 µM.

How did the IC50 turn out when `Nc1nc2cc(-c3cn([C@@H]4CN[C@H](C(=O)Nc5ccc(Cl)c(C(F)(F)F)c5)C4)nn3)cnc2s1` [Compound V304] was run?
The IC50 was over 20 µM.
